Results: ChEMBL document CHEMBL4619768, “Limonoids from Cipadessa baccifera” (J Nat Prod, 2020)
Active and inactive are the calls of the source. The calls are words filed in the database; no cut-off is given here.

The compounds below were run on Plasmodium falciparum (assay: Antimalarial activity against chloroquine-resistant ring-stage Plasmodium falciparum Dd2 incubated for 72 hrs by SYBR green1 dye-based assay). Conditions: not given.
Type: functional, organism-based

| Compound | Activity |
| --- | --- |
| COC(=O)C[C@H]1C(C)(C)[C@@H](O)[C@H](OC(C)=O)[C@@H]2OC3=C(C)C4=CC(=O)O[C@@H](c5ccoc5)[C@]4(C)[C@@H](O)[C@@H]3[C@@]21C | inactive |
| COC(=O)[C@@H](O)[C@H]1C(C)(C)[C@H](OC(C)=O)[C@H](OC(C)=O)[C@@H]2O[C@]34CC(=O)O[C@@H](c5ccoc5)[C@]3(C)C[C@@H](C(=O)[C@@H]4C)[C@@]21C | inactive |
| C=C1C2[C@H](O)C[C@@]3(C)[C@H](c4ccoc4)CC(=O)C[C@]13O[C@H]1[C@@H](OC(=O)[C@@H](C)CC)[C@H](O)C(C)(C)[C@H](CC(=O)OC)[C@@]21C | inactive |
| COC(=O)[C@@H](O)[C@H]1C(C)(C)[C@H](OC(C)=O)C[C@@H]2O[C@]34CC(=O)O[C@@H](c5ccoc5)[C@]3(C)C[C@@H](C(=O)[C@@H]4C)[C@@]21C | inactive |
| C=C1C2[C@H](O)C[C@@]3(C)[C@H](c4ccoc4)CC(=O)C[C@]13O[C@H]1[C@@H](OC(=O)[C@H](C)CC)[C@H](O)C(C)(C)[C@H](CC(=O)OC)[C@@]21C | inactive |
| C=C1[C@@]23CC(=O)C[C@@H](c4ccoc4)[C@]2(C)C[C@@H](OC(C)=O)[C@]1(O)[C@@]1(C)[C@@H](O3)[C@@H](OC(=O)C(C)C)[C@H](O)C(C)(C)[C@@H]1CC(=O)OC | inactive |
| COC(=O)C[C@H]1C(C)(C)[C@@H](OC(C)=O)[C@H](O)[C@@H]2OC3=C(C)C4=CC(=O)O[C@@H](c5ccoc5)[C@]4(C)[C@@H](O)[C@@H]3[C@@]21C | inactive |
| COC(=O)[C@@H](O)[C@H]1C(C)(C)[C@H](OC(C)=O)C[C@@H]2OC3=C(C)C4=CC(=O)O[C@@H](c5ccoc5)[C@]4(C)[C@@H](OC(C)=O)[C@@H]3[C@@]21C | inactive |
| COC(=O)[C@@H](O)[C@H]1C(C)(C)[C@H](OC(C)=O)C[C@@H]2O[C@]34CC(=O)O[C@@H](c5ccoc5)[C@]3(C)[C@@H](OC(C)=O)[C@@H](C(=O)[C@@H]4C)[C@@]21C | inactive |
| COC(=O)[C@@H](O)[C@H]1C(C)(C)[C@H](OC(C)=O)[C@H](OC(C)=O)[C@@H]2O[C@]34CC(=O)O[C@@H](c5ccoc5)[C@]3(C)[C@@H](OC(C)=O)[C@@H](C(=O)[C@@H]4C)[C@@]21C | inactive |

Same assay, conditions: Dd2, 72 h

| Compound | IC50 |
| --- | --- |
| C[C@@H]1CC[C@H]2[C@@H](C)C(=O)O[C@@H]3O[C@@]4(C)CC[C@@H]1[C@]32OO4 [ARTEMISININ] | 0.013 µM |
| C=C1[C@]2(O)CC[C@@]3(C)[C@H](c4ccoc4)CC(=O)C[C@]13O[C@H]1[C@@H](OC(=O)C(C)C)[C@H](O)C(C)(C)[C@H](CC(=O)OC)[C@]12C | 20 µM |
| C=C1[C@@]23CC(=O)C[C@@H](c4ccoc4)[C@]2(C)C[C@@H](OC(C)=O)[C@]1(O)[C@@]1(C)[C@@H](O3)[C@@H](OC(=O)[C@H](C)CC)[C@H](O)C(C)(C)[C@@H]1CC(=O)OC | 23.1 µM |
| COC(=O)C[C@H]1C(C)(C)[C@@H](O)[C@H](OC(=O)C(C)C)[C@@H]2O[C@]34CC(=O)O[C@@H](c5ccoc5)[C@]3(C)C[C@@H](C(=O)[C@@H]4C)[C@@]21C | 28 µM |
| C=C1[C@]2(O)CC[C@@]3(C)[C@H](c4ccoc4)CC(=O)C[C@]13O[C@H]1[C@@H](OC(=O)[C@@H](C)CC)[C@H](O)C(C)(C)[C@H](CC(=O)OC)[C@]12C | 12.3 µM |
| COC(=O)[C@@H](O)[C@H]1C(C)(C)[C@@H](O)[C@H](OC(=O)C(C)C)[C@@H]2O[C@]34CC(=O)O[C@@H](c5ccoc5)[C@]3(C)C[C@@H](C(=O)[C@@H]4C)[C@@]21C | 16.9 µM |
| C=C1[C@]2(O)CC[C@@]3(C)[C@H](c4ccoc4)CC(=O)C[C@]13O[C@H]1[C@@H](OC(=O)[C@H](C)CC)[C@H](O)C(C)(C)[C@H](CC(=O)OC)[C@]12C | 16.3 µM |
